Results: US9676760B2, “Fused heterocyclic compounds as ion channel modulators” (Gilead Sciences, Inc., priority 2011, dated 2017)

What was measured:
[1] = target: T1, wild-type human cardiac sodium channel, hNav1.5 (Homo sapiens, UniProt Q14524); experiment: Peak INa screening assay (tonic and use-dependent block); format: cell-based; details: compound at 1 μM
Experimental: The late sodium current (Late INa) and peak sodium current (Peak INa) assays are performed on an automated electrophysiology platform, QPatch 16× (Sophion Bioscience, Copenhagen, Denmark), which uses the whole cell patch clamp technique to measure currents through the cell membrane of up to 16 cells at a time. The assay uses an HEK293 (human embryonic kidney) cell line heterologously expressing the wild-type human cardiac sodium channel, hNav1.5, purchased from Millipore (Billerica, Mass.). No beta subunits were coexpressed with the Na channel alpha subunit. Cells are maintained with standard tissue culture procedures and stable channel expression is maintained with 400 μg/mL Geneticin in the culture medium. Cells isolated for use on QPatch are incubated for 5 minutes in Detachin 1×(Genlantis, San Diego, USA) at 37° C. to ensure that 80-90% of the cells are single and not part of a cell cluster. Experiments are carried out at 23-25° C.
For both the Late INa and Peak INa assays, series resistance compensation is set to 100% and series resistance and whole-cell compensation are performed automatically. Currents are digitized at 25 kHz and low-pass filtered at 12 kHz and 10 kHz for the late and peak INa assays, respectively. Currents through open sodium channels are automatically recorded and stored in the Sophion Bioscience Oracle database (Sophion Bioscience, Copenhagen, Denmark). Analysis is performed using QPatch Assay and database software and data are compiled in Excel.
Compound stocks are routinely made by the Gilead Sample Bank in plastic vials to 10 mM in dimethyl sulfoxide (DMSO). In some cases, when compounds are not soluble in DMSO, they are made in 100% ethanol. Stocks are sonicated as necessary. The extracellular solution for screening Late INa is composed of: 140 mM NaCl, 4 mM KCl, 1.8 mM CaCl2, 0.75 mM MgCl2 and 5 mM HEPES with pH adjusted to 7.4 using NaOH. The intracellular solution used to perfuse the inside of the cells for both the Late INa and Peak INa assays contains: 120 mM CsF, 20 mM CsCl, 5 mM EGTA, 5 mM HEPES and pH adjusted to 7.4 with CsOH. Compounds are diluted in extracellular solution to 1 μM in glass vials and then transferred to glass well plates before robotic addition to the cells. The 0 mM Na extracellular solution (0Na-ECF) used at the end of each experiment for the Late INa and Peak INa assays to measure baseline current contains: 140 mM N-methyl-D-glucamine; 4 mM KCl; 1.8 mM CaCl2; 0.75 mM MgCl2; 5 mM HEPES and pH was adjusted to 7.4 with HCl.
Compounds were also evaluated for their effect in several other assays, including their effect on Peak INa. […] Since the peak INa in the cells used herein can be very large, introducing artifacts in the recording, the concentration of Na^+ in the bath can be reduced to 20 mM and a nonpermeant cation added to compensate for the Na^+ that was removed to maintain the osmolarity and ionic strength of the solution (see solution details below).
A low stimulation frequency of 0.1 Hz was used to determine the effect of the test compound when the channel spent most of the time in the resting (closed) state and provides information about Tonic Block (TB). A higher stimulation frequency (3 Hz) was used to measure block of the channel when it spent more time in the activated and inactivated states and provided a measure of Use-Dependent Block (UDB). Use-dependent block refers to the accumulation of block with increased frequency of channel activation.

[2] = target: T1, wild-type human cardiac sodium channel, hNav1.5; experiment: Late INa screening assay (QPatch whole cell patch clamp, HEK293); format: cell-based; details: HEK293, percent block of late INa; compound at 1 μM; 10 μM Tefluthrin; read-out: Late INa 1 μM
In short: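 HEK293 stably expressing hNav1.5 without beta subunits, recorded at 23-25° C. Late current was induced by 10 μM tefluthrin. Cells were depolarized from −120 mV to −20 mV for 250 ms at 0.1 Hz. Compounds were tested at 1 μM in extracellular solution, with baseline taken in 0Na-ECF; output is percent block of late INa.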

[3] = tonic block of peak INa, 0.1 Hz, read-out: Peak TB 1 μM
[4] = use-dependent block of peak INa, 3 Hz, read-out: Peak UDB 1 μM

T1 sequence (Q14524 whole entry): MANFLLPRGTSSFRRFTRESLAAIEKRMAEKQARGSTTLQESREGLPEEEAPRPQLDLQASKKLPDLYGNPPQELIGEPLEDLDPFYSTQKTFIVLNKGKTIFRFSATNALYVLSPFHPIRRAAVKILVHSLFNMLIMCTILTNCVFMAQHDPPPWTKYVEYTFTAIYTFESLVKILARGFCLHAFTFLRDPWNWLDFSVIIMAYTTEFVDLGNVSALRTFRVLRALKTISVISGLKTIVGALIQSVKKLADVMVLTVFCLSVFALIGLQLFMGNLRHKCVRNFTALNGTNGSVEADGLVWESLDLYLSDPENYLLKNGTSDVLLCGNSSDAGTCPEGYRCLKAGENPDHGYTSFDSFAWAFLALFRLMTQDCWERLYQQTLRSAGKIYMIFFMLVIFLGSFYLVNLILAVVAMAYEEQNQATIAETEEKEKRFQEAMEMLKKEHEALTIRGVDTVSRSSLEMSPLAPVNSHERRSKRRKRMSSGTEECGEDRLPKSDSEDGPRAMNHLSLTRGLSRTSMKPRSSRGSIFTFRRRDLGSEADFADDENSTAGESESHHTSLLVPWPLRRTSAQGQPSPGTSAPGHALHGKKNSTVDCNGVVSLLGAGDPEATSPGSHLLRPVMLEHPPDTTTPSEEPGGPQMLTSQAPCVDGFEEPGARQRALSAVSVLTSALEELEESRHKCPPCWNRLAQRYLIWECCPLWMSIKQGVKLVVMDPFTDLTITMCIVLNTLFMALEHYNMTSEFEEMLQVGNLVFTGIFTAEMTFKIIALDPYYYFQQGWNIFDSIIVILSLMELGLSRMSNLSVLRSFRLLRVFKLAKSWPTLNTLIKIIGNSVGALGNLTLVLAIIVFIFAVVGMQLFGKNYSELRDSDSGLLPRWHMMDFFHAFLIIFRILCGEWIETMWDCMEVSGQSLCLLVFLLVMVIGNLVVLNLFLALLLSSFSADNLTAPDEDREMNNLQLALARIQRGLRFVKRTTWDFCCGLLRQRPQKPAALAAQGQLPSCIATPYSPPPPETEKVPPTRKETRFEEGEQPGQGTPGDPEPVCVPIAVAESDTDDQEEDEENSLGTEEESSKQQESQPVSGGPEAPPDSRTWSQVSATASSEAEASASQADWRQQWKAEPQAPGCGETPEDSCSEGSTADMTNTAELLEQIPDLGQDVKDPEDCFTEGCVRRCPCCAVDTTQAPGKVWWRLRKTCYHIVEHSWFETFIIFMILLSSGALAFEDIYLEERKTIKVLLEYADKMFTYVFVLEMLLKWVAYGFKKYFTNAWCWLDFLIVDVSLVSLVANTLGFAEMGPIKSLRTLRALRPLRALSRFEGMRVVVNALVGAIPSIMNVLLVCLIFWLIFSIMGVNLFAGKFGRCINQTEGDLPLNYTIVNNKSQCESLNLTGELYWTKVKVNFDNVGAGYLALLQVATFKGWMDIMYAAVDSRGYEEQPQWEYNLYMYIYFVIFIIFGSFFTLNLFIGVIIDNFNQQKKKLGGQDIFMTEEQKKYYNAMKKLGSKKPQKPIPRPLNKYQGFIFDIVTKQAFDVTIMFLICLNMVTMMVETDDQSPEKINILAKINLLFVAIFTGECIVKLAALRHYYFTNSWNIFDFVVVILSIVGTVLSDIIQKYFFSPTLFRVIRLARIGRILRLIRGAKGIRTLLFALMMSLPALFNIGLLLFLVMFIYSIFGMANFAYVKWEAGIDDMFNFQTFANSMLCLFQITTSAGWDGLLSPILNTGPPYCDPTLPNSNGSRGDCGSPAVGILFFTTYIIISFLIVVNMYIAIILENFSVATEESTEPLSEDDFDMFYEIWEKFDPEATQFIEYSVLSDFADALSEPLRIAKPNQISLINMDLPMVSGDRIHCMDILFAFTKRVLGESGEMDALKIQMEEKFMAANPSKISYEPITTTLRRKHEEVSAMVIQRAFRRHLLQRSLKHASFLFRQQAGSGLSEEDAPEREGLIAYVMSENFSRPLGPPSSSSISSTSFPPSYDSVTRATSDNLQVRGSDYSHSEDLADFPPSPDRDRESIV

SMILES	inhibition at 1 µM [1, 3] [%]	inhibition at 1 µM [1, 4] [%]	inhibition at 1 µM [2] [%]
CN1C(=O)CN(Cc2ccccc2)C(=O)c2cc(-c3ccc(C(F)(F)F)cc3)ccc21 [Compound X-11, 4-benzyl-1-methyl-7-(4-(trifluoromethyl)phenyl)-3,4-dihydro-1H-benzo[e][1,4]diazepine-2,5-dione]	17	20	48
O=C1c2cc(-c3ccc(OC(F)(F)F)cc3)ccc2OCCN1Cc1cccc(C(F)(F)F)n1 [II-15, 7-(4-(trifluoromethoxy)phenyl)-4-((6-(trifluoromethyl)pyridin-2-yl)methyl)-3,4-dihydrobenzo[f][1,4]oxazepin-5(2H)-one]	8	8	48
O=C1c2cc(-c3ccc(OC(F)(F)F)cc3)ccc2OCCN1Cc1cnccn1 [II-31, 4-(pyrazin-2-ylmethyl)-7-(4-(trifluoromethoxy)phenyl)-3,4-dihydrobenzo[f][1,4]oxazepin-5(2H)-one]	9	8	51
Cc1cnc(CN2CCOc3ccc(-c4ccc(OC(F)(F)F)cc4)cc3C2=O)o1 [II-33, 4-((5-methyloxazol-2-yl)methyl)-7-(4-(trifluoromethoxy)phenyl)-3,4-dihydrobenzo[f][1,4]oxazepin-5(2H)-one]	10	13	46
O=C1c2cc(-c3ccc(OC(F)(F)F)cc3)ccc2OCCN1Cc1ccccc1Cl [II-47, 4-(2-chlorobenzyl)-7-(4-(trifluoromethoxy)phenyl)-3,4-dihydrobenzo[f][1,4]oxazepin-5(2H)-one]	13	45	60
O=C1c2cc(-c3ccc(OC(F)(F)F)cc3)ccc2OCCN1Cc1c(Cl)cccc1Cl [II-48, 4-(2,6-dichlorobenzyl)-7-(4-(trifluoromethoxy)phenyl)-3,4-dihydrobenzo[f][1,4]oxazepin-5(2H)-one]	13	53	47
O=C1c2cc(-c3ccc(OC(F)(F)F)cc3)ccc2OCCN1Cc1c(F)cccc1F [II-49, 4-(2,6-difluorobenzyl)-7-(4-(trifluoromethoxy)phenyl)-3,4-dihydrobenzo[f][1,4]oxazepin-5(2H)-one]	28	44	63
O=C1c2cc(-c3ccc(OC(F)(F)F)cc3)ccc2OCCN1CCn1cccn1 [II-50, 4-(2-(1H-pyrazol-1-yl)ethyl)-7-(4-(trifluoromethoxy)phenyl)-3,4-dihydrobenzo[f][1,4]oxazepin-5(2H)-one]	5	19	48
O=C1c2cc(-c3ccc(OC(F)(F)F)cc3)ccc2OCCN1CCc1ccccn1 [II-54, 4-(2-(pyridin-2-yl)ethyl)-7-(4-(trifluoromethoxy)phenyl)-3,4-dihydrobenzo[f][1,4]oxazepin-5(2H)-one]	13	20	51
O=C1c2cc(-c3ccc(OC(F)(F)F)cc3)ccc2OCCN1Cc1ccccc1F [II-57, 4-(2-fluorobenzyl)-7-(4-(trifluoromethoxy)phenyl)-3,4-dihydrobenzo[f][1,4]oxazepin-5(2H)-one]	50	41	55
O=C1c2cc(-c3ccc(OC(F)(F)F)cc3)ccc2OCCN1Cc1ccc(F)cc1 [II-62, 4-(4-fluorobenzyl)-7-(4-(trifluoromethoxy)phenyl)-3,4-dihydrobenzo[f][1,4]oxazepin-5(2H)-one]	10	14	49
Cn1ccc(CN2CCOc3ccc(-c4ccc(OC(F)(F)F)cc4)cc3C2=O)n1 [II-64, 4-((1-methyl-1H-pyrazol-3-yl)methyl)-7-(4-(trifluoromethoxy)phenyl)-3,4-dihydrobenzo[f][1,4]oxazepin-5(2H)-one]	12	19	55
O=C1c2cc(-c3ccc(OC(F)(F)F)cc3)ccc2OCCN1Cc1ccccn1 [II-72, 4-(pyridin-2-ylmethyl)-7-(4-(trifluoromethoxy)phenyl)-3,4-dihydrobenzo[f][1,4]oxazepin-5(2H)-one]	22	34	60
O=C1c2cc(-c3ccc(OC(F)(F)F)cc3)ccc2OCCN1Cc1ccccc1 [II-134, 4-benzyl-7-(4-(trifluoromethoxy)phenyl)-3,4-dihydrobenzo[f][1,4]oxazepin-5(2H)-one]	38	34	69
COc1ccnc(CN2CCOc3ccc(-c4ccc(OC(F)(F)F)cc4)cc3C2=O)n1 [II-137, 4-((4-methoxypyrimidin-2-yl)methyl)-7-(4-(trifluoromethoxy)phenyl)-3,4-dihydrobenzo[f][1,4]oxazepin-5(2H)-one]	28	26	54
O=C1c2cc(-c3ccc(C(F)(F)F)cc3)ccc2OCCN1Cc1ccccc1 [II-141, 4-benzyl-7-(4-(trifluoromethyl)phenyl)-3,4-dihydrobenzo[f][1,4]oxazepin-5(2H)-one]	40	40	73
O=C1c2cc(-c3ccc(OCC4CCC4)cc3)ccc2OCCN1Cc1ncccn1 [II-144, 7-(4-(cyclobutylmethoxy)phenyl)-4-(pyrimidin-2-ylmethyl)-3,4-dihydrobenzo[f][1,4]oxazepin-5(2H)-one]	34	41	68
O=C1c2cc(-c3ccc(OC(F)(F)F)cc3)ccc2OCCN1Cc1ccn(C(F)F)n1 [II-147, 4-((1-(difluoromethyl)-1H-pyrazol-3-yl)methyl)-7-(4-(trifluoromethoxy)phenyl)-3,4-dihydrobenzo[f][1,4]oxazepin-5(2H)-one]	13	6	54
O=C1c2cc(-c3ccc(CC(F)(F)F)cc3)ccc2OCCN1Cc1ccccn1 [II-151, 4-(pyridin-2-ylmethyl)-7-(4-(2,2,2-trifluoroethyl)phenyl)-3,4-dihydrobenzo[f][1,4]oxazepin-5(2H)-one]	13	14	51
CCn1ccc(CN2CCOc3ccc(-c4ccc(OC(F)(F)F)cc4)cc3C2=O)n1 [II-153, 4-((1-ethyl-1H-pyrazol-3-yl)methyl)-7-(4-(trifluoromethoxy)phenyl)-3,4-dihydrobenzo[f][1,4]oxazepin-5(2H)-one]	15	13	56
Cc1cnn(CN2CCOc3ccc(-c4ccc(OC(F)(F)F)cc4)cc3C2=O)c1 [II-155, 4-((4-methyl-1H-pyrazol-1-yl)methyl)-7-(4-(trifluoromethoxy)phenyl)-3,4-dihydrobenzo[f][1,4]oxazepin-5(2H)-one]	13	11	38
